The values below come from paper PMC9851200, “Multiparameter phenotypic screening for endogenous TFEB and TFE3 translocation identifies novel chemical series modulating lysosome function” (Autophagy, 2022).

Holding throughout (assay type): binding
In assay [1] the target is T1, kinases (KINOMEscan panel) (Homo sapiens, UniProt Q13470).
T1 sequence (Q13470 1-666): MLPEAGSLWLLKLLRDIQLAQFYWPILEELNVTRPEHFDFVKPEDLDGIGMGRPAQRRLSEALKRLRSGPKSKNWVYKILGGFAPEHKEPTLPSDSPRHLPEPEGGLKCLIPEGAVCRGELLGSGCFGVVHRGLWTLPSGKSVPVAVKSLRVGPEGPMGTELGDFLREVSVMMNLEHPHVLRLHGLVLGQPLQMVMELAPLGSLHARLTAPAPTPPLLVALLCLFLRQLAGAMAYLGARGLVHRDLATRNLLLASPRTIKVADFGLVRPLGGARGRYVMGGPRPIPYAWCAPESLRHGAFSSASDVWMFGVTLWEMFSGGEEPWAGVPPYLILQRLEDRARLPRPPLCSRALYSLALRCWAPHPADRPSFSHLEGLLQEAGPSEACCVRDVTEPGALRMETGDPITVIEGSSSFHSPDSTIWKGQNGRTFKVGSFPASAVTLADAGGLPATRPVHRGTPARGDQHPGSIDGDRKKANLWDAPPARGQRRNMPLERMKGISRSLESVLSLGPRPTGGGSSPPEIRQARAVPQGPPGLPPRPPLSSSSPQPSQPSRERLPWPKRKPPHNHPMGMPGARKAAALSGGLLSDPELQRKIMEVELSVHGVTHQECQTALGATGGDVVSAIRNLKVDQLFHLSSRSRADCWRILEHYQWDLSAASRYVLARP
To be noted: TNK1; NEW KINOMEscan.

The target of assay [2] is kinases (KINOMEscan panel) (Homo sapiens, UniProt Q15759).
The target of assay [3] is T2, kinases (KINOMEscan panel) (Homo sapiens, UniProt O15111).
T2 sequence (O15111 1-745): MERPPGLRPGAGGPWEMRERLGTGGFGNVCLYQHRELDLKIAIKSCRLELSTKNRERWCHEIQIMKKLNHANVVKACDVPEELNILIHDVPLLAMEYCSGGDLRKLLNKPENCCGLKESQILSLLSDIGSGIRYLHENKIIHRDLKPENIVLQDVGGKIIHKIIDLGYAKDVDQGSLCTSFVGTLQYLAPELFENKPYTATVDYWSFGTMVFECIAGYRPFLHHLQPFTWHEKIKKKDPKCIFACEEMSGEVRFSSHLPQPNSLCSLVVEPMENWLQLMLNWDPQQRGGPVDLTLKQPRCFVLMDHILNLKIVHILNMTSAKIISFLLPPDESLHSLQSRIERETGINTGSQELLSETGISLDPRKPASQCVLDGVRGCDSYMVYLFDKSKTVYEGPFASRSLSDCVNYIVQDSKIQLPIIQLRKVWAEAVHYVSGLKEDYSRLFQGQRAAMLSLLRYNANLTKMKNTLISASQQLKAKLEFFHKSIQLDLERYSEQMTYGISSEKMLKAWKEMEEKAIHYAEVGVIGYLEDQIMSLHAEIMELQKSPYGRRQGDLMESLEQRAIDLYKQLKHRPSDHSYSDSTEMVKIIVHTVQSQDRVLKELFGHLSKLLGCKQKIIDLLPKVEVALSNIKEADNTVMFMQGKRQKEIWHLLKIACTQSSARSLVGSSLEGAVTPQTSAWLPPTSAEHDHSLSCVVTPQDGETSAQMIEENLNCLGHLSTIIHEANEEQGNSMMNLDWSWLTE

Assay [4] deals with kinases (KINOMEscan panel) (Homo sapiens, UniProt P07949, V804L). To be noted: NEW KINOMEscan.
Assay [5] concerns the target T3, kinases (KINOMEscan panel) (Homo sapiens, UniProt Q6XUX3).
T3 sequence (Q6XUX3 1-929): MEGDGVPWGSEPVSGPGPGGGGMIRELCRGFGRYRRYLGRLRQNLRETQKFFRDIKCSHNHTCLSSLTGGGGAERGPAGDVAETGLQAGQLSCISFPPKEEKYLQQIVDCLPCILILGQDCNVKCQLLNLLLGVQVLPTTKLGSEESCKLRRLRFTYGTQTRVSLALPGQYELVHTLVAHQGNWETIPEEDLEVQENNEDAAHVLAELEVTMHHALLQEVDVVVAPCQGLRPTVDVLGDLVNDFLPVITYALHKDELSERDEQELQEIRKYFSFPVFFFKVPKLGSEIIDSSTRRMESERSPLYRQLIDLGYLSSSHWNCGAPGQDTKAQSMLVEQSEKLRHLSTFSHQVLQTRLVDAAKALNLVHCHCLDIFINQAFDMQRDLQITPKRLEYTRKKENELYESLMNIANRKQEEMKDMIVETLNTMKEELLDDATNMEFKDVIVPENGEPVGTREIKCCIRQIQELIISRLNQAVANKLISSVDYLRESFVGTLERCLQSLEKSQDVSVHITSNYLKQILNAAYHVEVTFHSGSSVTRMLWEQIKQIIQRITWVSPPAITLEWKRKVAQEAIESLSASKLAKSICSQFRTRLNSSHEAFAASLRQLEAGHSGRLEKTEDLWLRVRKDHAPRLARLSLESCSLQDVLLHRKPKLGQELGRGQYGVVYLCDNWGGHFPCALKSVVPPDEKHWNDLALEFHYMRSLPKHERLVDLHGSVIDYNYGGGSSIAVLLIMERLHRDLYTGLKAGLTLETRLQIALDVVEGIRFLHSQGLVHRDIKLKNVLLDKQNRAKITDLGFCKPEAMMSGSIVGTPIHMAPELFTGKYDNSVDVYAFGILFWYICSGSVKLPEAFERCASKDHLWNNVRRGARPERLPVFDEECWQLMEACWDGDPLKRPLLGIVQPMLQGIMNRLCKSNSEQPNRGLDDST
The following applies: DSTYK; NEW KINOMEscan.

Assay [6] addresses kinases (KINOMEscan panel) (Homo sapiens, UniProt P36888, D835H). The following applies: kinase FLT3(D835H); NEW KINOMEscan.
Assay [7] has as its target kinases (KINOMEscan panel) (Homo sapiens, UniProt Q8TDR2). The following applies: STK35; NEW KINOMEscan.
The target in assay [8] is kinases (KINOMEscan panel) (Homo sapiens, UniProt P53667). To be noted: kinase LIMK1; NEW KINOMEscan.
In assay [9] the target is kinases (KINOMEscan panel) (Homo sapiens, UniProt P22607). To be noted: FGFR3; NEW KINOMEscan.
Assay [10] concerns the target kinases (KINOMEscan panel) (Homo sapiens, UniProt Q9BUB5). To be noted: NEW KINOMEscan.

Chain of kinases (KINOMEscan panel) (Homo sapiens, UniProt Q15759) (Q15759 whole entry): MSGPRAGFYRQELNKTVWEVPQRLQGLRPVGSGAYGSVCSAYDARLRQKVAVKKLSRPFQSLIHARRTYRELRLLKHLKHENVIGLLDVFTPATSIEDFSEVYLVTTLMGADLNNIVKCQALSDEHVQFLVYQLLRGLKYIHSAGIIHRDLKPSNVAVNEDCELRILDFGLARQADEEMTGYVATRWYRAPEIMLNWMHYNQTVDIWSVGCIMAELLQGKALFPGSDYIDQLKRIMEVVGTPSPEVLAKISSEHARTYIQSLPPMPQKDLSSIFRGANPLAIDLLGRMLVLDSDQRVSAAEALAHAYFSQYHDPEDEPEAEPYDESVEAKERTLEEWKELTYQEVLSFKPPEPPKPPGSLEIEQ
Chain of kinases (KINOMEscan panel) (Homo sapiens, UniProt Q8TDR2) (Q8TDR2 whole entry): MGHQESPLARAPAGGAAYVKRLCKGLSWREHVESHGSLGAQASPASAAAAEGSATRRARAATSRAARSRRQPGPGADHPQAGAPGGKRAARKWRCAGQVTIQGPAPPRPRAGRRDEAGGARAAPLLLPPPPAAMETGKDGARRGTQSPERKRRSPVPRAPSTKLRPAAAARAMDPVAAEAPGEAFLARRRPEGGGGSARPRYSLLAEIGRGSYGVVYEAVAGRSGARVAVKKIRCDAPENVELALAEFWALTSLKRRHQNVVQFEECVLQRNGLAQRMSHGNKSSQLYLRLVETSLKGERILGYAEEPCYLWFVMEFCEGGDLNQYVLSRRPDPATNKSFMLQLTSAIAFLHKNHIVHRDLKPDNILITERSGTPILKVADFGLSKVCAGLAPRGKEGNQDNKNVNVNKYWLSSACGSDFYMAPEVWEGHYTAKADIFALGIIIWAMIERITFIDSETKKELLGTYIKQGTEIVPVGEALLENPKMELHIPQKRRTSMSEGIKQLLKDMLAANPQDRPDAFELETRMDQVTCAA
Chain of kinases (KINOMEscan panel) (Homo sapiens, UniProt P07949, V804L) (P07949 29-1114 V804L): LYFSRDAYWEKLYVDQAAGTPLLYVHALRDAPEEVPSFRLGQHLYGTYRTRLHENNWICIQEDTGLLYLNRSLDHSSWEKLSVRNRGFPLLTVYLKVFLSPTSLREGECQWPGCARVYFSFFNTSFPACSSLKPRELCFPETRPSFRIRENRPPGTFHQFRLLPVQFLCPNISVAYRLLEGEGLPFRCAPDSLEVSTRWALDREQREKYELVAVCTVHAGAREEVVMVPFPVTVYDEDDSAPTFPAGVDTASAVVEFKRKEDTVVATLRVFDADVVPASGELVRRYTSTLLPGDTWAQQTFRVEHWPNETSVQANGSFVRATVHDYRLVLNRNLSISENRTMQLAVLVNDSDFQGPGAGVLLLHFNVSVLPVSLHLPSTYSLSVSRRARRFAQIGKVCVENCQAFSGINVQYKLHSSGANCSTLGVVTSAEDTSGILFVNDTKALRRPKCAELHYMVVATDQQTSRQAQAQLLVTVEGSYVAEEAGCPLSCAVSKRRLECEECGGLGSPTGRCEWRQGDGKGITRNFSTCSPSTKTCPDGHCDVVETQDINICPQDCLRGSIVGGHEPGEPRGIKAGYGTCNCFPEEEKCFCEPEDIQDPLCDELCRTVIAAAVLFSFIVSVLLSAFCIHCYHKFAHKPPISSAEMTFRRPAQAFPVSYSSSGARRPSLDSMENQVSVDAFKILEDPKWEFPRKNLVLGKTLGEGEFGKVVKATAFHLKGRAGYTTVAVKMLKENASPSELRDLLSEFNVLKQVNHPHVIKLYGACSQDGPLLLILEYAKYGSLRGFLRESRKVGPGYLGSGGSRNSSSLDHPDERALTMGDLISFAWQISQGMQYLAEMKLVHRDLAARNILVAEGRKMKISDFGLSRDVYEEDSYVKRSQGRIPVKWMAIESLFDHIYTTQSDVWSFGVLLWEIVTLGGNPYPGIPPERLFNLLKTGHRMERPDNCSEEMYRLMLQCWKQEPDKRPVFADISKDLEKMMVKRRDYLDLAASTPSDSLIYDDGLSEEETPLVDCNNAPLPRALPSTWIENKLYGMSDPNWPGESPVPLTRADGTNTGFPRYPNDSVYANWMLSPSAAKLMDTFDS
Chain of kinases (KINOMEscan panel) (Homo sapiens, UniProt P22607) (P22607 23-806): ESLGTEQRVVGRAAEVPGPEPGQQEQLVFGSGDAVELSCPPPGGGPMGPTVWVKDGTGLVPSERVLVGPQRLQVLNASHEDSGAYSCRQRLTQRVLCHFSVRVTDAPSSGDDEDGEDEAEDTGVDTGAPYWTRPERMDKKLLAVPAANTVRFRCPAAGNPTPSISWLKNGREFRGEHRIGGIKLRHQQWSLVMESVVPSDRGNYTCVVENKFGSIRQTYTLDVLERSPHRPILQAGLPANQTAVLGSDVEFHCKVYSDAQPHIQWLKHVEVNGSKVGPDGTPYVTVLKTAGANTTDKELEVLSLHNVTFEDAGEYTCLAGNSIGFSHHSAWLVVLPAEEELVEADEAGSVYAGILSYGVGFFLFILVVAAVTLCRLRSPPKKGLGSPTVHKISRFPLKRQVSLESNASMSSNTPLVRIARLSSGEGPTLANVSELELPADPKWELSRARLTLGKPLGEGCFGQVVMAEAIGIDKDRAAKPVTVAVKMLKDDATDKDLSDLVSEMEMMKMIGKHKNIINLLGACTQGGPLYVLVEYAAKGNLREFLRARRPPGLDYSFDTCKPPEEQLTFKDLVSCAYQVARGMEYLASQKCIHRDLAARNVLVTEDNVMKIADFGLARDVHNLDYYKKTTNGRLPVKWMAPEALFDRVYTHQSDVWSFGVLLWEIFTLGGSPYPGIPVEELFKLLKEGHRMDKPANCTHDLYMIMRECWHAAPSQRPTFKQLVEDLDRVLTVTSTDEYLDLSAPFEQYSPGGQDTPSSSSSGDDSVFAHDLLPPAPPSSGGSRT
Chain of kinases (KINOMEscan panel) (Homo sapiens, UniProt P53667) (P53667 whole entry): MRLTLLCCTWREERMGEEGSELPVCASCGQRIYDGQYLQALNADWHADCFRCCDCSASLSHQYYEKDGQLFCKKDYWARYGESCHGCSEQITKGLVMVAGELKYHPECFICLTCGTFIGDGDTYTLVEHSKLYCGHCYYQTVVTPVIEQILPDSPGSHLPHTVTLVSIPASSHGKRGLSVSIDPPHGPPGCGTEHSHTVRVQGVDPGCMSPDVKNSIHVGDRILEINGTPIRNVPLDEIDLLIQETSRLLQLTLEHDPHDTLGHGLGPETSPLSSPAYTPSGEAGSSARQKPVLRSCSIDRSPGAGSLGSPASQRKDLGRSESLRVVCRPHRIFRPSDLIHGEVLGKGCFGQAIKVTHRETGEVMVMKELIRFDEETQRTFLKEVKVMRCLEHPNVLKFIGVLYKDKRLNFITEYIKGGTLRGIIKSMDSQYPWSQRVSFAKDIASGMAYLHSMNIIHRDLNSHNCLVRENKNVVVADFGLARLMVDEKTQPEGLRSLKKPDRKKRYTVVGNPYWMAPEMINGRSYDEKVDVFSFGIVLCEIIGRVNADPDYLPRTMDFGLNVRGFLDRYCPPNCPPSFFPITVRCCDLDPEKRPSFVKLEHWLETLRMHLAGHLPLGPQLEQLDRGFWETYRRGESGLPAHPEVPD
Chain of kinases (KINOMEscan panel) (Homo sapiens, UniProt Q9BUB5) (Q9BUB5 whole entry): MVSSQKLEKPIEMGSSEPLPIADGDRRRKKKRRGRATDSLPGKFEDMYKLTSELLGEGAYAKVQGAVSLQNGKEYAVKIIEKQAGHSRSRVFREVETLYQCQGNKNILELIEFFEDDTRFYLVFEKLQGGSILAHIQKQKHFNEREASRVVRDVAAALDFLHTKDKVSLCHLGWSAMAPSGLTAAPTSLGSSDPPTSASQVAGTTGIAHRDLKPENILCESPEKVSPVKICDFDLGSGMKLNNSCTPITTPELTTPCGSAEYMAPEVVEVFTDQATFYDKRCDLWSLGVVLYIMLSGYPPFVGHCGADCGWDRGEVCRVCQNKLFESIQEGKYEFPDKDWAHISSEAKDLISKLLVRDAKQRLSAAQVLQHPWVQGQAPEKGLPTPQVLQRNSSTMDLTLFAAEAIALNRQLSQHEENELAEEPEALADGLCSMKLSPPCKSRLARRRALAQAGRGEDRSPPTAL

For `Cc1cccc(-c2nc(N(C)c3ccc4ncsc4c3)c3ccccc3n2)n1` [NK-161], the “KINOMEscan TNK1” value in assay [1] is reported as 7. Moreover, in assay [2], the “KINOMEscan MAPK11/p38-beta” value was determined as 1. The “KINOMEscan CHUK/IKK-alpha” value in assay [3] came out at 20. In addition, in [4], the “KINOMEscan RET(V804L)” value is recorded as 15. Further, the “KINOMEscan DSTYK” value in assay [5] is 0. In addition, the “KINOMEscan FLT3(D835H)” value in assay [6] turned out to be 4. For the same compound, in [7], the “KINOMEscan STK35” value was determined as 0. For the same compound, the “KINOMEscan LIMK1” value in [8] was determined as 0. Moreover, in [9], the “KINOMEscan FGFR3” value is 1. The “KINOMEscan MKNK1” value in assay [10] was 7.
`Cc1cccc(-c2nc(Nc3ccc4nn(C)cc4c3)c3ccccc3n2)n1` [NK167]: the “KINOMEscan TNK1” value in assay [1] was found to be 0. The “KINOMEscan MAPK11/p38-beta” value in [2] worked out at 12. For the same compound, in assay [3], the “KINOMEscan CHUK/IKK-alpha” value is 0. Also, the “KINOMEscan RET(V804L)” value in assay [4] is reported as 0. Also, the “KINOMEscan DSTYK” value in assay [5] came out at 0. In assay [6], the “KINOMEscan FLT3(D835H)” value is 0. In addition, in [7], the “KINOMEscan STK35” value is recorded as 0. The “KINOMEscan LIMK1” value in assay [8] was 0. Also, the “KINOMEscan FGFR3” value in assay [9] is given as 0. Further, the “KINOMEscan MKNK1” value in assay [10] was 0.
